Target: T1, human LPA1 (Homo sapiens, UniProt Q92633)
T1 construct: expressed in transfected cells; host or cells: Chinese hamster ovary (CHO) cells
Experiment: LPA1 functional antagonist assay (LPA-induced calcium flux)
Assay type: cell-based
Conditions: CHO cells overexpressing human LPA1; inhibition of calcium flux induced by 10 nM LPA; read-out: hLPA1 IC50
Protocol: The effectiveness of compounds of the present invention as LPA1 inhibitors can be determined in an LPA1 functional antagonist assay as follows:
Chinese hamster ovary cells overexpressing human LPA1 were plated overnight (15,000 cells/well) in poly-D-lysine coated 384-well microplates (Greiner bio-one, Cat #781946) in DMEM/F12 medium (Gibco, Cat #11039). Following overnight culture, cells were loaded with calcium indicator dye (AAT Bioquest Inc, Cat #34601) for 30 minutes at 37° C. The cells were then equilibrated to room temperature for 30 minutes before the assay. Test compounds solubilized in DMSO were transferred to 384 well non-binding surface plates (Corning, Cat #3575) using the Labcyte Echo acoustic dispense and diluted with assay buffer [1×HBSS with calcium/magnesium (Gibco Cat #14025-092), 20 mM HEPES (Gibco Cat #15630-080) and 0.1% fatty acid free BSA (Sigma Cat #A9205)] to a final concentration of 0.5% DMSO. Diluted compounds were added to the cells by FDSS6000 (Hamamatsu) at final concentrations ranging from 0.08 nM to 5 μM. and were then incubated for 20 min at room temperature at which time LPA (Avanti Polar Lipids Cat #857130C) was added at final concentrations of 10 nM to stimulate the cells. The compound IC50 value was defined as the concentration of test compound which inhibited 50% of the calcium flux induced by LPA alone. IC50 values were determined by fitting data to a 4-parameter logistic equation (GraphPad Prism, San Diego CA).

T1 sequence (Q92633 whole entry): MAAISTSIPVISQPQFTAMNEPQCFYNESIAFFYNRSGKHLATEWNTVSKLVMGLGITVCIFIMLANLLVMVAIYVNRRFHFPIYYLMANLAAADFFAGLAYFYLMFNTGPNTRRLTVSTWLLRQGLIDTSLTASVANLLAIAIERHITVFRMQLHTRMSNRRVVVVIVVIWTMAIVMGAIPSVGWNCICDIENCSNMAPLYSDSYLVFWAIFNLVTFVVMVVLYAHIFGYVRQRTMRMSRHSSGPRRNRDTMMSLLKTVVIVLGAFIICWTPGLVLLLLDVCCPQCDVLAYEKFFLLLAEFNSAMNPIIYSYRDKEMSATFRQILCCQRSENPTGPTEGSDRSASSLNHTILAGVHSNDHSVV

IC50 [nM] | SMILES
292 | CCCN(C)C(=O)OCc1c(-c2ccc(O[C@H]3CC[C@H](CC(=O)O)C3)c(C)n2)nnn1C (racemic) [Example 54, (±)-trans-2-[3-({2-methyl-6-[1-methyl-5-({[methyl(propyl)carba-moyl]oxy}methyl)-1H-1,2,3-triazol-4-yl]pyridin-3-yl}oxy)cyclopentyl]acetic acid]
135 | Cc1nc(-c2nnn(C)c2COC(=O)N(C)CC(C)C)ccc1O[C@H]1CC[C@H](CC(=O)O)C1 (racemic) [Example 55, (±)-trans-2-[3-({2-methyl-6-[1-methyl-5-({[methyl(2-methylpropyl)carbamoyl]oxy}methyl)-1H-1,2,3-triazol-4-yl]pyridin-3-yl}oxy)cyclo-pentyl]acetic acid]
89 | Cc1nc(-c2nnn(C)c2COC(=O)N(C)C2CCCC2)ccc1O[C@H]1CC[C@H](CC(=O)O)C1 (racemic) [Example 56, (±)-trans-2-[3-({6-[5-({[cyclopentyl(methyl)carbamoyl]oxy}methyl)-1-methyl-1H-1,2,3-triazol-4-yl]-2-methylpyridin-3-yl}oxy)cyclopentyl]acetic acid]
295 | Cc1nc(-c2nnn(C)c2COC(=O)N(C)C2(C)CC2)ccc1O[C@H]1CC[C@H](CC(=O)O)C1 (racemic) [Example 57, (±)-trans-2-[3-({2-methyl-6-[1-methyl-5-({[methyl(1-methylcyclo-propyl)carbamoyl]oxy}methyl)-1H-1,2,3-triazol-4-yl]pyridin-3-yl}oxy)cyclopentyl]acetic acid]
479 | CCC1(N(C)C(=O)OCc2c(-c3ccc(O[C@H]4CC[C@H](CC(=O)O)C4)c(C)n3)nnn2C)CC1 (racemic) [Example 58, (±)-trans-2-[3-({6-[5-({[(1-ethylcyclo-propyl)(methyl)carbamoyl]oxy}methyl)-1-methyl-1H-1,2,3-triazol-4-yl]-2-methylpyridin-3-yl}oxy)cyclo-pentyl]acetic acid]
276 | Cc1nc(-c2nnn(C)c2CNC(=O)OCC2(C)CC2)ccc1O[C@H]1CC[C@H](CC(=O)O)C1 (racemic) [Example 59, (±)-trans-2-[3-[(2-methyl-6-{1-methyl-5-[({[(1-methylcyclopropyl)methoxy]carbonyl}amino)methyl]-1H-1,2,3-triazol-4-yl}pyridin-3-yl)oxy]cyclo-pentyl]acetic acid]
264 | CCC1(COC(=O)NCc2c(-c3ccc(O[C@H]4CC[C@H](CC(=O)O)C4)c(C)n3)nnn2C)CC1 (racemic) [Example 60, (±)-trans-2-[3-[(6-{5-[({[(1-ethyl-cyclopropyl)methoxy]carbonyl}amino)methyl]-1-methyl-1H-1,2,3-triazol-4-yl}-2-methylpyridin-3-yl)oxy]cyclopentyl]acetic acid]
444 | Cc1nc(-c2nnn(C)c2COC(=O)N2CCC3(CCC3)C2)ccc1O[C@H]1CC[C@H](CC(=O)O)C1 (racemic) [Example 61, (±)-trans-2-[3-({6-[5-({6-azaspiro[3.4]octane-6-carbonyloxy}methyl)-1-methyl-1H-1,2,3-triazol-4-yl]-2-methylpyridin-3-yl}oxy)cyclopentyl]acetic acid]
183 | CCCC1(COC(=O)NCc2c(-c3ccc(O[C@H]4CC[C@H](CC(=O)O)C4)c(C)n3)nnn2C)CCC1 (racemic) [Example 62, (±)-trans-2-[3-[(2-methyl-6-{1-methyl-5-[({[(1-propylcyclobutyl)methoxy]carbonyl}amino)methyl]-1H-1,2,3-triazol-4-yl}pyridin-3-yl)oxy]cyclo-pentyl]acetic acid]
96 | Cc1nc(-c2nnn(C)c2COC(=O)N(C)C2CCC2)ccc1O[C@H]1CC[C@H](CC(=O)O)C1 (racemic) [Example 63, (±)-trans-2-[3-({6-[5-({[cyclobutylmethyl-1H-1,2,3-triazol-4-yl]-2-(methyl)carbamoyl]oxy}methyl)-1-methylpyridin-3-yl}oxy)cyclopentyl]acetic acid]
165 | Cc1nc(-c2nnn(C)c2COC(=O)N(C)CCCCF)ccc1O[C@H]1CC[C@H](CC(=O)O)C1 (racemic) [Example 64, (±)-trans-2-[3-({6-[5-({[(4-fluoro-butyl)(methyl)carbamoyl]oxy}methyl)-1-methyl-1H-1,2,3-triazol-4-yl]-2-methylpyridin-3-yl}oxy)cyclo-pentyl]acetic acid]
944 | Cc1nc(-c2nnn(C)c2COC(=O)N(C)CCCF)ccc1O[C@H]1CC[C@H](CC(=O)O)C1 (racemic) [Example 65, (±)-trans-2-[3-({6-[5-({[(3-fluoro-propyl)(methyl)carbamoyl]oxy}methyl)-1-methyl-1H-1,2,3-triazol-4-yl]-2-methylpyridin-3-yl}oxy)cyclo-pentyl]acetic acid]
452 | Cc1nc(-c2nnn(C)c2COC(=O)N2CC3(CCC3)C2)ccc1O[C@H]1CC[C@H](CC(=O)O)C1 (racemic) [Example 66, (±)-trans-2-[3-({6-[5-({2-azaspiro[3.3]heptane-2-carbonyloxy}methyl)-1-methyl-1H-1,2,3-triazol-4-yl]-2-methylpyridin-3-yl}oxy)cyclopentyl]acetic acid]
770 | Cc1nc(-c2nnn(C)c2COC(=O)N2CCC3(CC3)C2)ccc1O[C@H]1CC[C@H](CC(=O)O)C1 (racemic) [Example 67, (±)-trans-2-[3-({6-[5-({5-azaspiro[2.4]heptane-5-carbonyloxy}methyl)-1-methyl-1H-1,2,3-triazol-4-yl]-2-methylpyridin-3-yl}oxy)cyclopentyl]acetic acid]
147 | CCCCN(C)C(=O)OCc1c(-c2nc(C)c(O[C@H]3CC[C@H](CC(=O)O)C3)cc2F)nnn1C (racemic) [Example 68, (±)-trans-2-[3-({6-[5-({[butyl(methyl)carbamoyl]oxy}methyl)-1-methyl-1H-1,2,3-triazol-4-yl]-5-fluoro-2-methyl-pyridin-3-yl}oxy)cyclopentyl]acetic acid]
210 | Cc1nc(-c2nnn(C)c2COC(=O)N(C)C2CCCC2)c(F)cc1O[C@H]1CC[C@H](CC(=O)O)C1 (racemic) [Example 69, (±)-trans-2-[3-({6-[5-({[cyclopentyl(methyl)carbamoyl]oxy}methyl)-1-methyl-1H-1,2,3-triazol-4-yl]-5-fluoro-2-methylpyridin-3-yl}oxy)cyclopentyl]acetic acid]
220 | Cc1nc(-c2nnn(C)c2COC(=O)N(C)CC2CCC2)c(F)cc1O[C@H]1CC[C@H](CC(=O)O)C1 (racemic) [Example 70, (±)-trans-2-[3-({6-[5-({[(cyclobutyl-methyl)(methyl)carbamoyl]oxy}methyl)-1-methyl-1H-1,2,3-triazol-4-yl]-5-fluoro-2-methyl-pyridin-3-yl}oxy)cyclopentyl]acetic acid]
205 | Cc1noc(-c2ccc(O[C@H]3CC[C@@H](C(=O)O)C3)cc2)c1COC(=O)N(C)C1CCCC1 (racemic) [Example 71, (±)-cis-3-{4-[4-({[cyclopentyl(methyl)carbamoyl]oxy}methyl)-3-methyl-1,2-oxazol-5-yl]phenoxy}cyclopentane-1-carboxylic acid]
254 | Cc1noc(-c2ccc(O[C@H]3CC[C@H](C(=O)O)C3)cc2)c1COC(=O)N(C)CCC(C)C (racemic) [Example 72, (±)-trans-3-{4-[3-methyl-4-({[methyl(3-methylbutyl)carbamoyl]oxy}methyl)-1,2-oxazol-5-yl]phenoxy}cyclopentane-1-carboxylic acid]
1180 | Cc1noc(-c2ccc(O[C@H]3CC[C@@H](C(=O)O)C3)cc2)c1COC(=O)N(C)CCC(C)C (racemic) [Example 73, (±)-cis-3-{4-[3-methyl-4-({[methyl(3-methylbutyl)carbamoyl]oxy}methyl)-1,2-oxazol-5-yl]phenoxy}cyclo-pentane-1-carboxylic acid]
101 | Cc1nc(-c2nnn(C)c2COC(=O)N(C)CC2CCC2)ccc1O[C@H]1CC[C@@H](C(=O)O)C1 (racemic) [Example 74, (±)-cis-3-({6-[5-({[cyclobutylmethyl)(methyl)carbamoyl]oxy}methyl)-1-methyl-1H-1,2,3-triazol-4-yl]-2-methylpyridin-3-yl}oxy)cyclopentane-1-carboxylic acid]
42.5 | Cc1nc(-c2nnn(C)c2COC(=O)N(C)CC2CCC2)ccc1O[C@H]1CC[C@H](C(=O)O)C1 (racemic) [Example 75, (±)-trans-3-({6-[5-({[(cyclobutyl-methyl)(methyl)carbamoyl]oxy}methyl)-1-methyl-1H-1,2,3-triazol-4-yl]-2-methylpyridin-3-yl}oxy)cyclo-pentane-1-carboxylic acid]
40 | Cc1nc(-c2onc(C)c2COC(=O)N(C)C2CCCC2)ccc1O[C@H]1CC[C@@H](C(=O)O)C1 (racemic) [Example 76, (±)-cis-3-({6-[4-({[cyclopentyl(methyl)carbamoyl]oxy}methyl)-3-methyl-1,2-oxazol-5-yl]-2-methyl-pyridin-3-yl}oxy)cyclopentane-1-carboxylic acid]

— patent US12209072B2, “Cyclopentyl acids as LPA antagonists” (BRISTOL-MYERS SQUIBB COMPANY, priority 2018, dated 2025)
